“And” between values parts separate entries of the source, which are not always exact repeats. Equal values may be shown once.
System: COR L88 complex tumor spheroid viability
Test: Anticancer human tumor COR L88 cell line growth inhibition;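 also: compound exposure lasted 7 days before viability readout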;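 as to viability, T/C: percent of DMSO vehicle-treated spheroids = 100%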
Settings: for viability, T/C: stronger effect = lower value; active = viability on the fitted dose curve at most 10% of control; inactive = the rest
Description: Multicellular complex tumor spheroid response to DNA repair inhibitors in combination with DNA-damaging drugs
This study explores the anticancer activities of DNA-damaging drugs and inhibitors of DNA damage repair, both as single agents and in combinations. Complex tumor spheroids comprised of malignant cells, endothelial cells and mesenchymal stem cells served as an in vitro model for human solid tumors. This model system incorporates physiologically relevant features and patient-derived or established malignant cell lines with clinically relevant genetic alterations from many tumor types. Twenty-six patient-derived or established malignant cell lines were evaluated representing sarcoma, melanoma, small cell lung cancer (SCLC), non-small cell lung cancer (NSCLC), as well as bladder, ovarian and pancreatic cancers. The concentration ranges selected for each drug and investigational agent were based upon clinically achievable concentrations if the clinical Cmax of the agent was known.
Compounds. The drugs and compounds olaparib (NSC753686), talazoparib (NSC767125), berzosertib (NSC777718), elimusertib (NSC800525), nedisertib (NSC802822), VX-984 (NSC792969), AZD-1390 (NSC803789), temozolomide (NSC362856), topotecan (NSC609699), trabectedin (NSC813783), staurosporine (NSC755774), and gemcitabine (NSC613327) were obtained from the National Cancer Institute (NCI) Developmental Therapeutics Program Chemical Repository. The FDA-approved anticancer drug set is available from the Developmental Therapeutics Program at https://dtp.cancer.gov/organization/dscb/obtaining/available_plates.htm. […] The stock solutions were prepared in dimethyl sulfoxide (DMSO, Sigma-Aldrich, St. Louis, MO, cat. D2650) at 400-fold the tested concentration and stored at -70 degrees C. Prior to their use, the stock solutions were diluted in fresh medium and the final DMSO concentration in the assay was 0.25% (v/v). All drugs and investigational agents were tested over a range starting from a high concentration at or near the clinical Cmax and decreasing in half-log increments. If the clinical Cmax for an agent had not been determined, the highest concentration tested was 10 microM.
Cell Lines. The patient-derived cancer cell (PDC) lines: 156681-154-R-J1-PDC, 283228-195-R-J1-PDC, 287954-098-R-J1-PDC, 292921-168-R-J2-PDC, 349418-098-R-PDC, 425362-245-T-J1-PDC, 556581-035-R-J1-PDC, and BL0293-F563-PDC were received from the NCI Patient-Derived Models Repository (PDMR, https://pdmr.cancer.gov). The established cell lines HS-SY-2 (RRID:CVCL_8719), MPNST, and SYO-1 (RRID:CVCL_7146) were obtained from the Sloan Kettering Institute. The alveolar soft parts sarcoma cell line ASPS-1 (RRID:CVCL_S738) was established at the NCI and grown from internal seed stocks. The following established cell lines were purchased from the American Type Culture Collection (ATCC, Manassas, VA): G-401 (ATCC, cat. CRL-1441, RRID:CVCL_0270), SW982 (ATCC, cat. HTB-93, RRID:CVCL_1734), VA-ES-BJ (ATCC, cat. CRL-2138, RRID:CVCL_1785), NCI-H719 (ATCC, cat. CRL-5837, RRID:CVCL_1582), NCI-H196 (ATCC, cat. CRL-5823, RRID:CVCL_1509), NCI-H841 (ATCC, cat. CRL-5845, RRID:CVCL_1595), NCI-H1618 (ATCC, cat. CRL-5879, RRID:CVCL_1480), NCI-H1876 (ATCC, cat. CRL-5902, RRID:CVCL_1503), DMS 114 (ATCC, cat. CRL-2066; RRID:CVCL_1174), NCI-H211 (ATCC, cat. CRL-5824; RRID:CVCL_1529), and SW 1271 (ATCC, cat. CRL-2177, RRID:CVCL_1716). The small cell lung cancer cell line COR-L88 was purchased from Sigma-Aldrich (cat. 92031917-1VL, RRID:CVCL_1141). The non-small cell lung cancer cell lines NCI-H226 (RRID:CVCL_1544) and NCI-H322M (RRID:CVCL_1557) were established at the NCI and grown from internal seed stocks. Pooled donor human umbilical vein endothelial cells (HUVEC, Lonza, cat. CC-2519) and human mesenchymal stem cells (hMSC, Lonza, cat. PT-2501) were purchased from Lonza (Walkersville, MD).
Cell Culture. All cells were maintained in an incubator at 37 degrees C and 5% CO2 with 95% humidity. […]

[1] = curve of first compound, second compound 0.003 µM
[2] = second compound 0.003 µM, first compound 0.00949 µM
[3] = second compound 0.003 µM, first compound 0.03 µM
[4] = second compound 0.003 µM, first compound 0.0949 µM
[5] = second compound 0.003 µM, first compound 0.3 µM
[6] = second compound 0.003 µM, first compound 0.949 µM
[7] = second compound 0.003 µM, first compound 3 µM

CNCc1ccc(-c2cc(-c3nc(-c4ccc(S(=O)(=O)C(C)C)cc4)cnc3N)on2)cc1 + CC[C@@]1(O)C(=O)OCc2c1cc1n(c2=O)Cc2cc3c(CN(C)C)c(O)ccc3nc2-1
22.6 nM: IC50 (curve of first compound, second compound 0.0949 µM)
149 nM: IC50 (curve of first compound, second compound 0.03 µM)
393 nM: IC50 (curve of first compound, second compound 0.00949 µM)
active: viability, T/C (second compound 0.3 µM, first compound 0.3 µM) 9.3% | viability, T/C (second compound 0.3 µM, first compound 0.949 µM) 7.79% | viability, T/C (second compound 0.3 µM, first compound 3 µM) 5.02%
< 9.49 nM: IC50 (curve of first compound, second compound 0.3 µM)
497 nM: IC50 [1]
inactive: viability, T/C [2] 94.4% | viability, T/C [3] 102% | viability, T/C [4] 105% | viability, T/C [5] 64.2% | viability, T/C [6] 30.1% | viability, T/C [7] 9.59% | viability, T/C (second compound 0.00949 µM, first compound 0.00949 µM) 103% | viability, T/C (second compound 0.00949 µM, first compound 0.03 µM) 99.7% | viability, T/C (second compound 0.00949 µM, first compound 0.0949 µM) 88.2% | viability, T/C (second compound 0.00949 µM, first compound 0.3 µM) 53.7% | viability, T/C (second compound 0.00949 µM, first compound 0.949 µM) 30% | viability, T/C (second compound 0.00949 µM, first compound 3 µM) 9.92% | viability, T/C (second compound 0.03 µM, first compound 0.00949 µM) 60.8% | viability, T/C (second compound 0.03 µM, first compound 0.03 µM) 63.6% | viability, T/C (second compound 0.03 µM, first compound 0.0949 µM) 62.6% | viability, T/C (second compound 0.03 µM, first compound 0.3 µM) 32.5% | viability, T/C (second compound 0.03 µM, first compound 0.949 µM) 17.3% | viability, T/C (second compound 0.03 µM, first compound 3 µM) 9.44% | viability, T/C (second compound 0.0949 µM, first compound 0.00949 µM) 55.3% | viability, T/C (second compound 0.0949 µM, first compound 0.03 µM) 49.5% | viability, T/C (second compound 0.0949 µM, first compound 0.0949 µM) 24.9% | viability, T/C (second compound 0.0949 µM, first compound 0.3 µM) 16.2% | viability, T/C (second compound 0.0949 µM, first compound 0.949 µM) 11.7% | viability, T/C (second compound 0.0949 µM, first compound 3 µM) 7.2% | viability, T/C (second compound 0.3 µM, first compound 0.00949 µM) 43% | viability, T/C (second compound 0.3 µM, first compound 0.03 µM) 29.2% | viability, T/C (second compound 0.3 µM, first compound 0.0949 µM) 14.9%

Cn1ncnc1[C@H]1c2n[nH]c(=O)c3cc(F)cc(c23)N[C@@H]1c1ccc(F)cc1 + COc1cc2c(cc1O)CCNC21CSC2c3c(OC(C)=O)c(C)c4c(c3C(COC1=O)N1C(O)C3Cc5cc(C)c(OC)c(O)c5C(C21)N3C)OCO4
inactive: viability, T/C (second compound 30 pM, first compound 0.00949 µM) 90.9% | viability, T/C (second compound 30 pM, first compound 0.03 µM) 72.8% | viability, T/C (second compound 30 pM, first compound 0.0949 µM) 58.9% | viability, T/C (second compound 30 pM, first compound 0.3 µM) 47.3% | viability, T/C (second compound 30 pM, first compound 0.949 µM) 43.9% | viability, T/C (second compound 30 pM, first compound 3 µM) 37.3% | viability, T/C (second compound 94.9 pM, first compound 0.00949 µM) 77.1% | viability, T/C (second compound 94.9 pM, first compound 0.03 µM) 61.3% | viability, T/C (second compound 94.9 pM, first compound 0.0949 µM) 50.5% | viability, T/C (second compound 94.9 pM, first compound 0.3 µM) 45.8% | viability, T/C (second compound 94.9 pM, first compound 0.949 µM) 42.5% | viability, T/C (second compound 94.9 pM, first compound 3 µM) 38.5% | viability, T/C (second compound 0.0003 µM, first compound 0.00949 µM) 57.9% | viability, T/C (second compound 0.0003 µM, first compound 0.03 µM) 51.9% | viability, T/C (second compound 0.0003 µM, first compound 0.0949 µM) 46.1% | viability, T/C (second compound 0.0003 µM, first compound 0.3 µM) 43.6% | viability, T/C (second compound 0.0003 µM, first compound 0.949 µM) 39.4% | viability, T/C (second compound 0.0003 µM, first compound 3 µM) 41% | viability, T/C (second compound 0.000949 µM, first compound 0.00949 µM) 53.6% | viability, T/C (second compound 0.000949 µM, first compound 0.03 µM) 45% | viability, T/C (second compound 0.000949 µM, first compound 0.0949 µM) 44.2% | viability, T/C (second compound 0.000949 µM, first compound 0.3 µM) 36.2% | viability, T/C (second compound 0.000949 µM, first compound 0.949 µM) 13.9%
255 nM: IC50 (curve of first compound, second compound 30 pM)
120 nM: IC50 (curve of first compound, second compound 94.9 pM)
< 9.49 nM: IC50 (curve of first compound, second compound 0.000949 µM) | IC50 [1]
active: viability, T/C (second compound 0.000949 µM, first compound 3 µM) 2.75% | viability, T/C [2] 1.06% | viability, T/C [3] 0.96% | viability, T/C [4] 0.96% | viability, T/C [5] 0.79% | viability, T/C [6] 1.64% | viability, T/C [7] 2.68%
40.1 nM: IC50 (curve of first compound, second compound 0.0003 µM)

CNCc1ccc(-c2cc(-c3nc(-c4ccc(S(=O)(=O)C(C)C)cc4)cnc3N)on2)cc1
753 nM and 848 nM and 391 nM: IC50 (curve of compound)
inactive: viability, T/C (compound 0.00949 µM) 98.5% and 103% and 105% | viability, T/C (compound 0.03 µM) 111% and 118% and 104% | viability, T/C (compound 0.0949 µM) 109% and 107% and 101% | viability, T/C (compound 0.3 µM) 87% and 84.6% and 56.4% | viability, T/C (compound 0.949 µM) 40.9% and 47.2% and 22.6%
11.8% and 11.3% and 5.68%: viability, T/C (compound 3 µM)

CC[C@@]1(O)C(=O)OCc2c1cc1n(c2=O)Cc2cc3c(CN(C)C)c(O)ccc3nc2-1
45.7 nM [middle of 5 runs]: IC50 (compound alone, run of 10/17/2019)
> 300 nM and 163 nM and 172 nM: IC50 (compound alone, run of 10/25/2019)
inactive: viability, T/C (compound 0.00949 µM) 76% [middle of 10 runs] | viability, T/C (compound 0.03 µM) 55% [middle of 10 runs] | viability, T/C (compound 0.0949 µM) 52% [middle of 10 runs] | viability, T/C (compound 0.3 µM) 48.1% [middle of 10 runs]

From PubChem BioAssay AID1845201 (Molecular Pharmacology Branch, DTP, NCI, 2023)
